# Reference: PMC6017357, “In Vitro Inhibitory Effects of Synthetic Cannabinoid EAM-2201 on Cytochrome P450 and UDP-Glucuronosyltransferase Enzyme Activities in Human Liver Microsomes” (Molecules : A Journal of Synthetic Chemistry and Natural …, 2018)
# Legend:
# UGT1A3 = target: T1, UGT1A3 (Homo sapiens, UniProt P35503); assay: UGT1A3-catalyzed chenodeoxycholic acid 24-acyl-glucuronidation in human liver microsomes; type: in vitro ADME; parameters: from tissue; host or cells: ultrapooled human liver microsomes
# T1 sequence (P35503 29-534): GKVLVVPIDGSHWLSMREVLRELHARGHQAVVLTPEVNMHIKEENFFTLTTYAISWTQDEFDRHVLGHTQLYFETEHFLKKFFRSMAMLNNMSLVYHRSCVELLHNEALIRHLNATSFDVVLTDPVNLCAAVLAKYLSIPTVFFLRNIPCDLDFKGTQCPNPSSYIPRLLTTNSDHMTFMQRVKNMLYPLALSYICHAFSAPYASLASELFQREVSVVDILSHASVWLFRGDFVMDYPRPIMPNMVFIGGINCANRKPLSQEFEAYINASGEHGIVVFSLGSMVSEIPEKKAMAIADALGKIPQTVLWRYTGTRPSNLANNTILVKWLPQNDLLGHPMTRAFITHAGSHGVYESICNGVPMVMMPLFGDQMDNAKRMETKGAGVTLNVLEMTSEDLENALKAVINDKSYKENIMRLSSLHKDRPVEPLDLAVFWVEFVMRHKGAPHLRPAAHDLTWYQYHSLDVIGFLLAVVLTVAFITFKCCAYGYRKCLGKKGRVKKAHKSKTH
# Experimental: The inhibitory effects of EAM-2201 on UGT1A1, UGT1A3, UGT1A4, UGT1A6, UGT1A9 and UGT2B7 were evaluated using LC-MS/MS and the cocktail of UGT substrates as previously described. […] Supernatant from sets A and B (50 µL of each) was mixed and aliquots (5 µL) were analyzed by LC-MS/MS. […]
# Reactions were initiated by adding UDPGA at 37 °C and stopped after 60 min by adding 100 µL ice-cold methanol containing propofol glucuronide (internal standard). […] Aliquots (5 µL) of the diluted supernatants were analyzed using LC-MS/MS.
# (§1) The metabolites formed from the six UGT cocktail substrates were simultaneously measured using LC-MS/MS [41]. […] Each metabolite was quantified via SRM in the negative ion mode: chenodeoxycholic acid 24-acyl-β-glucuronide, 567.2 > 391.0; mycophenolic acid glucuronide, 495.2 > 318.9; and propofol glucuronide (IS), 353.3 > 177.1; and in the positive ion mode: SN-38 glucuronide, 569.0 > 393.0; trifluoperazine glucuronide, 584.2 > 408.1; N-acetylserotonin-β-D-glucuronide, 395.2 > 219.0; naloxone 3-β-D-glucuronide, 504.0 > 310.0; and meloxicam (IS), 352.0 > 115.1. […]
# UGT1A1 = target: T2, UGT1A1 (Homo sapiens, UniProt P22309); assay: UGT1A1-catalyzed SN-38 glucuronidation in human liver microsomes; type: in vitro ADME; conditions: at 50 µM
# T2 construct: ultrapooled human liver microsomes (0.2 mg/mL), 5 mM UDPGA; from tissue; host or cells: ultrapooled human liver microsomes
# T2 sequence (P22309 26-533): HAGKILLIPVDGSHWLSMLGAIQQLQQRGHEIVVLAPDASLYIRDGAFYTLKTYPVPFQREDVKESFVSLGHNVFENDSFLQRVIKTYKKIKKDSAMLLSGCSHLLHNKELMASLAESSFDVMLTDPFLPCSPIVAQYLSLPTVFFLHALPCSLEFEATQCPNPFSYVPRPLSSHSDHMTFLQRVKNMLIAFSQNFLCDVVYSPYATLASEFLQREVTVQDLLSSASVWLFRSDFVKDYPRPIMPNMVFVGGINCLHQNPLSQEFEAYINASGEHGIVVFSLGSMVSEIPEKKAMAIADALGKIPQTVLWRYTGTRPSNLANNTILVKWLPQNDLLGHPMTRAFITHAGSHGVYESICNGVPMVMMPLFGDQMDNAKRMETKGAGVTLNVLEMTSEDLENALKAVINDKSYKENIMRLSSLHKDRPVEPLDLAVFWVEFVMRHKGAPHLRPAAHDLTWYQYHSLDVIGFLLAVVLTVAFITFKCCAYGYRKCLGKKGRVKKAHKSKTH
# Experimental: The inhibitory effects of EAM-2201 on UGT1A1, UGT1A3, UGT1A4, UGT1A6, UGT1A9 and UGT2B7 were evaluated using LC-MS/MS and the cocktail of UGT substrates as previously described. Each incubation mixture was prepared in a final volume of 100 µL as follows: ultrapooled human liver microsomes (0.2 mg/mL), 5 mM UDPGA, 10 mM magnesium chloride, alamethicin (25 µg/mL), 50 mM Tris buffer (pH 7.4), various concentrations of EAM-2201 in DMSO (final concentrations of 1–50 µM, 0.5% DMSO) and the UGT enzyme-specific substrates of two cocktail sets (set A: 0.5 µM SN-38, 2 µM chenodeoxycholic acid and 0.5 µM trifluoperazine; set B: 1 µM N-acetylserotonin, 0.2 µM mycophenolic acid and 1 µM naloxone, acetonitrile content, 0.5%). […] Supernatant from sets A and B (50 µL of each) was mixed and aliquots (5 µL) were analyzed by LC-MS/MS. […]
# as §1
structure (smiles),measurement,setting,value
"CCc1ccc(C(=O)c2cn(CCCCCF)c3ccccc23)c2ccccc12 [EAM-2201, (4-ethyl-1-naphthalenyl)[1-(5-fluoropentyl)-1H-indol-3-yl]-methanone]",IC50,UGT1A3,11.7 µM
same,Ki,UGT1A3,2.4 µM
same,inhibition of UGT1A1-catalyzed SN-38 glucuronidation,UGT1A1,negligibly inhibited
